Measured values taken from patent US8247378B2, “Homing peptide for tumor vasculature” (The Chinese University of Hong Kong, priority 2009, dated 2012).
Where no end group is shown, it is not given here. The star is where a group is joined. FITC = O=C1OC2(c3ccc(O)cc3Oc3cc(O)ccc32)c2ccc(NC(=S)*)cc21

Assays:
[1] = test system: SW1116 cells; test: In vitro cell viability assay (MTT assay), SW1116; format: cell-based, human; conditions: SW1116, 48 h, increasing concentrations
Protocol: (§1) Cell lines and cell culture: The murine colorectal cancer cell colon 26, human colon cancer cell SW1116 were cultured at 37° C. in a humidified atmosphere containing 5% CO2, in RPMI-1640 medium supplemented with 2 g/L sodium bicarbonate, 100 units/ml penicillin, […] streptomycin and 10% FBS.
(§2) In vitro cell viability assay (MTT assay): Cell viability was assessed by MTT assay, which depends on the ability of viable cells to reduce the MTT to a colored formazan product. In brief, cells (10^4 cells per well) were seeded in 96-well microculture plates overnight for attachment, and then incubated with increasing concentrations of the peptides CTPSPFSHC-GG-D(KLAKLAK)2 or CTPSPFSHC (SEQ ID NO:1) or D(KLAKLAK)2 in 100 μl of 1% FBS in DMEM for 6˜48 hours at 37° C. In the next step, MTT was added to each well, and the cells were further incubated for 3 h. The colored formazan product was determined photometrically at 570 nm in a multi-well plate reader (Bio-Rad).
(§3) TCP-1 conjugate and induction of apoptosis in colorectal cancer cells: Next, in order to examine whether the TCP-1 peptide could serve as a drug carrier into cancer cells, we synthesized a chimeric peptide of TCP-1 peptide to a proapoptotic peptide D(KLAKLAK)2, which disrupts mitochondrial membranes upon receptor-mediated cell internalization and causes programmed cell death. Increasing concentrations of TCP-1 conjugate (TCP-GG-D(KLAKLAK)2), equimolar TCP-1 or D(KLAKLAK)2 were incubated with colon 26 or SW1116 cells at 37° C. Cell viability was assessed after 6 h (colon 26) and 48 h (SW1116). The effect of TCP-1 conjugate on the cell viability was determined and compared respectively with TCP-1 or D(KLAKLAK)2 alone.

[2] = test system: orthotopic colorectal tumors; test: Organ level imaging of tumor tissues with FITC-labeled peptide; format: in vivo, mice
Protocol: Imaging of tissue was done under a blue light, by using the imaging system of KODAK Image Station 2000MM.
To determine whether FITC-labeled TCP-1 accumulated into the tumor tissues can be visualized at the organ level, tumor-bearing mice were injected intravenously with FITC-labeled TCP-1, control peptide or PBS alone. More specifically, tumor-bearing mice were i.v. injected with 500 nmol fluorescein-conjugated peptide (in 500 μl PBS). The peptide was allowed to circulate for 20 hour. The mice were killed, and various tissues were excised and examined for fluorescence. Organ imaging was done under a blue light, by using the imaging system of KODAK Image Station 2000MM.
Further, FITC-labeled TCP-1 could specifically accumulate in the tumor tissues with various volumes (diameter 2 mm, 6 mm, 8 mm tested) (FIG. 5B).

[3] = test system: colon 26 cells; test: In vitro cell viability assay (MTT assay), colon 26; format: cell-based, murine; conditions: colon 26, 6 h, increasing concentrations
Protocol: as §1, §2, §3

[4] = test system: orthotopic colorectal cancer tissue (colon 26); test: In vivo phage targeting assay, orthotopic colorectal cancer model; parameters: species or system BALB/c mice; conditions: synthetic peptide (300 μg) co-injected with CTPSPFSHC-phage
Protocol: The mice were maintained at Chinese University of Hong Kong Animal Facility.
The model was performed as previously published with some modifications. (See Takahashi T, Morotomi M, and Nomoto K (2004). A novel mouse model of rectal cancer established by orthotopic implantation of colon cancer cells. Cancer Sci 95, 514-519). Briefly, all mice were given the tap water containing 3% dextran sulfate sodium (DSS) for 8 days to induce colitis. Mice were fasted for 18 h (DSS) after colitis induction, and then anesthetized with sodium pentobarbital. Colon 26 cells (3×10^6 cells/40 μl/mouse) were infused intrarectally with a micropipette inserted 2 cm into the anus of the mice. The anus was compressed with a noncrushing microclamp immediately after instillation of tumor cells for 30 min to prevent leakage. Successful models were used for in vivo selection at 2 weeks after implantation of tumor cells.
The assay was as described in Zhang L, Giraudo E, Hoffman J A, Hanahan D, and Ruoslahti E (2006). Lymphatic zip codes in premalignant lesions and tumors. Cancer Res 66, 5696-5706. Briefly, mice bearing tumors were anesthetized and i.v. injected with 1×10^9 pfu CTPSPFSHC-phage or control phage. After 8 minutes, mice were perfused through the heart with DMEM containing 1% BSA. The tumor and control organs were removed from each mouse and the phage was rescued and titered. […]

[5] = test system: tumor vasculature of orthotopic colorectal cancer; test: Therapeutic treatment with proapoptotic conjugate, cleaved caspase 3/CD31 staining; format: in vivo
Source text: We conjugated TCP-1 with a pro-apoptotic peptide, D(KLAKLAK)2, which disrupts mitochondrial membranes upon receptor-mediated cell internalization and causes programmed cell death. This approach has been successfully employed for targeted apoptosis induction in angiogenic endothelial cells, tumor lymphatics and the vasculature of white fat. See: Zhang L, Giraudo E, Hoffman J A, Hanahan D, and Ruoslahti E (2006). Lymphatic zip codes in premalignant lesions and tumors. Cancer Res 66, 5696-5706; Kolonin M G, Saha P K, Chan L, Pasqualini R, and Arap W (2004). Reversal of obesity by targeted ablation of adipose tissue. Nat Med 10, 625-632; and, Ellerby H M, Arap W, Ellerby L M, Kain R, Andrusiak R, Rio G D, Krajewski S, Lombardo C R, Rao R, Ruoslahti E, et al. (1999). Anti-cancer activity of targeted pro-apoptotic peptides. Nat Med 5, 1032-1038. All-D enantiomer D(KLAKLAK)2 was used to avoid degradation by proteases. Ellerby H M, et al., (1999) Nat Med 5, 1032-1038.
Mice bearing orthotopic colorectal cancer were randomized into three groups. The therapeutic group was i.v. injected 260 μg/dose/mouse of the conjugated CTPSPFSHC-GG-D(KLAKLAK)2 [CDK]. Control groups received an equimolar mixture of CTPSPFSHC (SEQ ID NO:1) and D(KLAKLAK)2 [DKK], or PBS alone once every three days. Treatment was terminated 7 days after the first peptide administration as described in Kolonin M G, Saha P K, Chan L, Pasqualini R, and Arap W (2004). Reversal of obesity by targeted ablation of adipose tissue. Nat Med 10, 625-632 and Giordano R J, Landenranta J, Zhen L, Chukwueke U, Petrache I, Langley R R, Fidler I J, Pasqualini R, Tuder R M, and Arap W (2008). Targeted induction of lung endothelial cell apoptosis causes emphysema-like changes in the mouse. J Biol Chem 283, 29447-29460.
Tumors and control organs were dissected at the termination of the experiment. Histologic analysis was done to evaluate the density of tumor blood vessels. Apoptotic vascular endothelial cells were visualized by double staining with anticleaved caspase-3 and CD31 antibodies. […]

[6] = test system: blood vessels of human colon and rectal adenocarcinoma tissues; test: Peptide binding to tissue sections from human cancer; conditions: for binding to blood vessels of cancer tissues / binding to vasculature of normal colon tissues: 10 μmol/L, 1 hour, 37° C., human biopsy sections
Protocol: To establish the ability of TCP-1 to selectively bind to the vasculature of human tumors, human biopsy samples were studied. They were double stained and images photographically overlayed to determine tissue specificity. More specifically, multiple human biopsy samples containing both colon adenocarcinoma and normal colonic tissue were snap frozen, embedded in OCT, cut into 5 μm sections, and then arrayed on slides. The slides were incubated with 10 μmol/L FITC-CTPSPFSHC (SEQ ID NO:2) or FITC-CVQTAQLLC (SEQ ID NO:3) for 1 hour at 37° C., washed three times with PBS, fixed with 4% paraformaldehyde. Blood vessels were stained with mouse anti-human CD31 monoclonal antibody and Alexa Fluor 568 goat anti-mouse IgG as above described.
The positive binding was usually found in tumor tissues at more advanced stages (in terms of lymphovascular permeation, T staging, N staging, and overall Dukes' staging).

[7] = test system: blood vessels (CD31) in orthotopic colorectal tumor tissues; test: Biodistribution of FITC-conjugated peptide, colorectal cancer model; format: in vivo, mouse; conditions: 300 nmol i.v., 1 hour circulation
Protocol: (§4) To further confirm whether the selective phage homing was due to the CTPSPFSHC (SEQ ID NO:1) peptide (TCP-1), chemically synthetic FITC-conjugated TCP-1 or control peptide was intravenously injected into tumor-bearing mice to study the location of the peptide. Biodistribution of fluorescein-conjugated peptides was examined after i.v. injection of the peptide (300 nmol in 300 μl PBS) into the tail vein of a tumor-bearing mouse. The peptide was allowed to circulate for 1 hour.
Tumor and control tissues were collected and frozen sections prepared as described above in Example 1. Blood vessels were stained by CD31 antibody (secondary antibody conjugated Alexa-568). […] FITC-labeled control peptide was not found in the tumor tissues (FIG. 4A). Taken together with the immunolocalization analyses of TCP-1 phage homing, the peptide localization data confirmed that TCP-1 peptide homed specifically to blood vessels in tumor tissues but not to the vasculature of control organs.

[8] = test system: blood vessels (CD31) in gastric cancer tissues; test: Biodistribution of FITC-conjugated peptide, gastric cancer model; format: in vivo, mouse; conditions: 300 nmol i.v., 1 hour circulation
Protocol: as §4, with “gastric cancer-bearing” for “tumor-bearing”
Tumor and control tissues were collected and frozen sections prepared as described above. Blood vessels were stained by CD31 antibody (secondary antibody conjugated Alexa-568). […] FITC-labeled control peptide was not found in the tumor tissues (FIG. 10 bottom). Taken together with the immunolocalization analyses of TCP-1 phage homing, the peptide localization data confirmed that TCP-1 peptide also homed specifically to blood vessels in gastric cancer tissues but not to the vasculature of control organs.

[9] = 500 nmol i.v., 20 h after injection

Substance | effect on cell viability [1] | peptide fluorescence in vasculature of tumor tissue (histological analysis) ([2]; 20 h after injection) | effect on cell viability [3] | fluorescent signal in other control tissues [2, 9] | fluorescent signal in tumors, whole tissue under blue light [2, 9] | binding to blood vessels of cancer tissues [6] | binding to vasculature of normal colon tissues [6] | peptide localization in tumor tissues (CD31 co-staining) [7] | peptide localization in tumor tissues (CD31 co-staining) [8] | also measured
CTPSPFSHC (also: cyclic) [TCP-1] | no significant effect on cell viability | remained in the vasculature of tumor tissue | no significant effect on cell viability |  |  |  |  |  |  | peptide fluorescence in control organs (histological analysis) ([2]; 20 h after injection): not in the control organs; effect on phage number recovered from control organs (brain, colon) [4]: not much affected; reduction of phage number recovered from the tumor tissue [4]: 95%
CTPSPFSHC-GG-D(KLAKLAK)2 [TCP-GG-D(KLAKLAK)2] | inhibited the proliferation of colon 26 and SW1116 cells more efficiently than D(KLAKLAK)2 alone |  | inhibited the proliferation of colon 26 and SW1116 cells more efficiently than D(KLAKLAK)2 alone |  |  |  |  |  |  | vasculature endothelial cells expressing active caspase 3 in tumors ([5]; 260 μg/dose/mouse i.v. once every three days, 7 days, vs PBS or uncoupled mixture): obvious increase; quantification of active caspase 3: apoptotic cells in the tumor vasculature ([5]; 260 μg/dose/mouse i.v., compared to the other two groups): remarkable increased number of apoptotic cells; apoptotic vasculature in normal colon tissues and brain tissues ([5]; mouse, in vivo): hardly active caspase-3 positive cells
D(KLAKLAK)2 [reference compound] | much weaker toxic effects |  | much weaker toxic effects |  |  |  |  |  |  | 
FITC-CTPSPFSHC ({FITC}-CTPSPFSHC; cysteine pairing not given here) [FITC-labeled TCP-1, FITC-conjugated TCP-1 peptide for homing validation] |  |  |  | no specific fluorescent signal | strong fluorescent signal | bound | not to vasculature of normal colon tissues | colocalised with CD31 | colocalised with CD31 | smallest tumor size detected ([2]; 500 nmol i.v., 20 hour circulation): 2 mm; colon adenocarcinomas recognized by the peptide ([6]; positive/total patients): 5/10; rectal adenocarcinomas recognized by the peptide ([6]; positive/total patients): 6/11; peptide localization in control organs [7]: not detectable; peptide localization in control organs [8]: not detectable
FITC-CVQTAQLLC ({FITC}-CVQTAQLLC; cysteine pairing not given here) [FITC-labeled control peptide, FITC-conjugated negative control peptide, reference compound] |  | not detectable |  | no specific fluorescent signal | no fluorescent signal | did not interact | did not interact | not found | not found | 
